This passage reports AC50, IC50 and EC50 results from ChEMBL document CHEMBL1201862, “PubChem BioAssay data set” (2004).

Test [1] addresses FAD-linked sulfhydryl oxidase ALR (Homo sapiens, UniProt P55789). The experiment in a line: ALR-catalysed DTT oxidation blockers – biochemical, H2O2 detection, luminescence, cherry-pick, dose response (AID 493248).
Test [2] concerns the target Alkaline phosphatase, placental type (Homo sapiens, UniProt P05187). In words: human placental alkaline phosphatase inhibition – biochemical, luminescence, confirmation (AID 1512). In kind it is functional.
Test [3] concerns the target T1, Coagulation factor XII (Homo sapiens, UniProt P00748).
T1 sequence (P00748 whole entry): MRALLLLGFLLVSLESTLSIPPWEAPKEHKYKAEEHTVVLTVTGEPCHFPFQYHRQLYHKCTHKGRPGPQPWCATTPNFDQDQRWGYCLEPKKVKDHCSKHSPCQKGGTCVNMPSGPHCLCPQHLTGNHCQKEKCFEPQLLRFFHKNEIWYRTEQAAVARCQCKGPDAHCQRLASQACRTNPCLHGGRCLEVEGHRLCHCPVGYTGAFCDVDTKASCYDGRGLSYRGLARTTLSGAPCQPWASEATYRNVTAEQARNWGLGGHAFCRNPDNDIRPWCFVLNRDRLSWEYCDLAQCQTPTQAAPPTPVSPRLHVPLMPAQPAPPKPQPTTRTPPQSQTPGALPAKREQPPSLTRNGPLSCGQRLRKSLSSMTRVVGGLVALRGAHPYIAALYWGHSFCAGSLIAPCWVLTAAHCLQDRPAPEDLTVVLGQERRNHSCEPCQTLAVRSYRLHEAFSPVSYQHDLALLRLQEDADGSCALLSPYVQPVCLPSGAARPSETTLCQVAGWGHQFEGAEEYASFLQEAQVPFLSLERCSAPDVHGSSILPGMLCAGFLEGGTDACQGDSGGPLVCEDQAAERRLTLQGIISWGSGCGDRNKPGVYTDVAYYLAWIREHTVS
The experiment in a line: Factor XIIa Dose Response Confirmation from Single Well HTS. [Related pubchem assays (depositor defined):AID701]. Type of test: functional.

Test [4] deals with T2, Intestinal-type alkaline phosphatase (Homo sapiens, UniProt P09923). In words: human intestinal alkaline phosphatase activators, dose response, biochemical, luminescence, uHTS hits (AID 463120). Type of test: functional.
T2 sequence (P09923 whole entry): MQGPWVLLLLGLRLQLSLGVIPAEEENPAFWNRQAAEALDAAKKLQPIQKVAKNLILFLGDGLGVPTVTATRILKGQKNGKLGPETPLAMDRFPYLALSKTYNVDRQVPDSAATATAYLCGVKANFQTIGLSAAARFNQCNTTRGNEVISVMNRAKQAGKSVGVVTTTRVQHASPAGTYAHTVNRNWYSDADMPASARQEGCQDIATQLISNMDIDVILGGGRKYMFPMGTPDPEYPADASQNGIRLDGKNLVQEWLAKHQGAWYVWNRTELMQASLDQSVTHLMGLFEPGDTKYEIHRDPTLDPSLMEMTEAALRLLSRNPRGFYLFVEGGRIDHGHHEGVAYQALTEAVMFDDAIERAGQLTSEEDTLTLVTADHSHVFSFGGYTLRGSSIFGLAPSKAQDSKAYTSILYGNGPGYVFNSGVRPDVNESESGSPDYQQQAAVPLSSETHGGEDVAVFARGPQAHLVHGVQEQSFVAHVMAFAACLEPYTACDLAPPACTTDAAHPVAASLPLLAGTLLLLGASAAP
The target in test [5] is T2, Intestinal-type alkaline phosphatase. The experiment in a line: Dose Response confirmation of uHTS hits from a small molecule inhibitors of human intestinal alkaline phosphatase via a luminescent assay. [Related pubchem assays (depositor defined):AID2544, AID2574]. In kind it is functional.
Test [6] concerns the target T3, Kappa-type opioid receptor (Homo sapiens, UniProt P41145). The experiment in a line: SAR analysis of Antagonists of the Kappa Opioid Receptor (KOR) using an Image-Based Assay - Set 4. [Related pubchem assays (depositor defined):AID1777, AID1785]. In kind it is functional.
Test [7] concerns the target Delta-type opioid receptor (Homo sapiens, UniProt P41143). In words: SAR Analysis of Antagonists of the DOR Receptor using an Image-Based Assay - Set 3. [Related pubchem assays (depositor defined):AID1777, AID1785]. In kind it is functional.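 Also: U2OS cells expressing DOR1 and beta-arrestin GFP stimulated with 100 nM SNC80; imaging of GFP-tagged beta-arrestin moving into spots after receptor activation.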
Test [8] concerns the target T3, Kappa-type opioid receptor. In words: SAR analysis of small molecule antagonists of the kappa opioid receptor via a luminescent beta-arrestin assay - Set 3. [Related pubchem assays (depositor defined):AID1777, AID1778, AID1785, AID1786, AID1966, AID2133, AID2136, AID2285, AID2495]. Type of test: functional.
Test [9] has as its target Mu-type opioid receptor (Homo sapiens, UniProt P35372). In words: SAR Analysis of Antagonists of the MOR Receptor using an Image-Based Assay - Set 3. [Related pubchem assays (depositor defined):AID1777, AID1785, AID1786, AID1966, AID2133, AID2136, AID2284, AID2285, AID2420]. In kind it is functional.

SMILES strings stand for the structures. Active and inactive are the calls of the source.

T3 sequence (P41145 whole entry): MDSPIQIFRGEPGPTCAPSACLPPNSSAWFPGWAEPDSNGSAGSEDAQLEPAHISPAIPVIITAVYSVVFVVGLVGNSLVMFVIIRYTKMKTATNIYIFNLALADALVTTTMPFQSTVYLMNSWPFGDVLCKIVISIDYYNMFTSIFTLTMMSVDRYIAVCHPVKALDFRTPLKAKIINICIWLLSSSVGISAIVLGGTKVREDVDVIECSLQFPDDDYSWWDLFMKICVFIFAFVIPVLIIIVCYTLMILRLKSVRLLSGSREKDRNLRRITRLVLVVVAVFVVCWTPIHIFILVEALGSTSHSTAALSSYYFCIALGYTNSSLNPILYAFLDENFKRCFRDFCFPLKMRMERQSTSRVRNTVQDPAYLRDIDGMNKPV
Chain of FAD-linked sulfhydryl oxidase ALR (P55789 whole entry): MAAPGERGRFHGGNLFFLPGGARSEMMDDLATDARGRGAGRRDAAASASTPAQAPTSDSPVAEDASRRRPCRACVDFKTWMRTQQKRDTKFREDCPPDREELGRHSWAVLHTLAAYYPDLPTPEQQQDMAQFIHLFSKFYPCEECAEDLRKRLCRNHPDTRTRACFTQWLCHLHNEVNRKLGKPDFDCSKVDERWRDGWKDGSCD
Chain of Mu-type opioid receptor (P35372 whole entry): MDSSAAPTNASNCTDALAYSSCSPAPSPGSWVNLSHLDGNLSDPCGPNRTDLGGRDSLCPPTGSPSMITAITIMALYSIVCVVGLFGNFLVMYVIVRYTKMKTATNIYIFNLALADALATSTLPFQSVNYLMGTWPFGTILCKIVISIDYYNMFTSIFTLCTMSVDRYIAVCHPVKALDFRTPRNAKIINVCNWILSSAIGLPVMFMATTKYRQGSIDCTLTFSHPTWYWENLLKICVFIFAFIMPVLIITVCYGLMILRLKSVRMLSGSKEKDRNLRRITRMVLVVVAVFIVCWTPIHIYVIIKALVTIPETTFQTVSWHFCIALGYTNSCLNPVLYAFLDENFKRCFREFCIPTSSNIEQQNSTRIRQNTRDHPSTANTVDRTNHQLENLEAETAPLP
Chain of Delta-type opioid receptor (P41143 whole entry): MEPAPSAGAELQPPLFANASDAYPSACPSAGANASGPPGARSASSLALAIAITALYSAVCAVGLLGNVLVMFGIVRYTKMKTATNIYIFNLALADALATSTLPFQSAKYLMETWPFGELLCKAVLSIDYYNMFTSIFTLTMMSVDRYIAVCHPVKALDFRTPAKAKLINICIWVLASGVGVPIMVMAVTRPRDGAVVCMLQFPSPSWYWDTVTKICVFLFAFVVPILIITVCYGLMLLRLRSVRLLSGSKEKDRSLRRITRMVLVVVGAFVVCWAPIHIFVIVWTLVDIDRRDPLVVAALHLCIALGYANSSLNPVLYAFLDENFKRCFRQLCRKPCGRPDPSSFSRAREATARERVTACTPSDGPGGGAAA
Chain of Alkaline phosphatase, placental type (P05187 whole entry): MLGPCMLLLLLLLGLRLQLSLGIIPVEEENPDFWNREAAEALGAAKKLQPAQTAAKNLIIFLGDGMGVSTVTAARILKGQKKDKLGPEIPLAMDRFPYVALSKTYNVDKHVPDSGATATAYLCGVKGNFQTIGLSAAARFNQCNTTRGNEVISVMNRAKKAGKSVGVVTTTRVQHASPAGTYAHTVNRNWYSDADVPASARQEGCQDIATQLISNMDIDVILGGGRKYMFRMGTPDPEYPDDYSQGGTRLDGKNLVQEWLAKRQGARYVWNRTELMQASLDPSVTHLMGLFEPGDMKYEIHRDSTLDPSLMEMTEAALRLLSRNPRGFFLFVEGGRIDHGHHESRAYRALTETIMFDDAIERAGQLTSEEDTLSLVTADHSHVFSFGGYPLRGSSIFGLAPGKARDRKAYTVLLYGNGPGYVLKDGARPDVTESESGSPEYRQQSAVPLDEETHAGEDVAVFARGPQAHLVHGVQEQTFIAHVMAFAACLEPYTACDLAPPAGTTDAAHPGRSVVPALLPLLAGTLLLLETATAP

Take `O=C(NNc1ccccn1)C(=O)NNS(=O)(=O)c1ccc(Cl)cc1`: in test [1], the half-maximal activity concentration (AC50) is 0.786 µM (active). For the same compound, the IC50 in test [2] was > 100 µM (inactive).
For `Cc1ccc(CNC(=O)C[S+]([O-])CC(=O)O)cc1` (centres undefined), the IC50 in [3] is > 50 µM (inactive).
For `CC1(C)C[C@@H](O)CC2(C1)C[C@]1(C)CC(O)[C@H]2C(C)(C)C1` (some centres undefined), the EC50 in test [4] was > 100 µM (inactive). Further, in test [5], the IC50 was > 100 µM (inactive).
`COc1ccc(N2CCN(CCCNC(=O)Cn3c(=O)c4cccn4c4cc(Br)cnc43)CC2)c(OC)c1`: the IC50 in test [6] is 3.02 µM (active); in [7], > 32 µM (inactive); in test [8], 2.82 µM (active); in test [9] it was 10.2 µM (inactive).
